Here are results for 33 molecules from patent US8735406B2, “8-oxodihydropurine derivative” (Dainippon Sumitomo Pharma Co., Ltd., priority 2009, dated 2014).

For orientation: inhibition means the change of the read-out against control, counted positive when it falls. As usually defined, the IC50 is the concentration needed to halve the response being measured.

The experiment concerns the target T1, FAAH (Rattus norvegicus, UniProt P97612).
T1 construct: Preparation of Rat Brain Membranes Preparations (FAAH Enzyme Solution); from tissue; host or cells: rat cerebrum (brain membrane preparation)
T1 sequence (P97612 1-579): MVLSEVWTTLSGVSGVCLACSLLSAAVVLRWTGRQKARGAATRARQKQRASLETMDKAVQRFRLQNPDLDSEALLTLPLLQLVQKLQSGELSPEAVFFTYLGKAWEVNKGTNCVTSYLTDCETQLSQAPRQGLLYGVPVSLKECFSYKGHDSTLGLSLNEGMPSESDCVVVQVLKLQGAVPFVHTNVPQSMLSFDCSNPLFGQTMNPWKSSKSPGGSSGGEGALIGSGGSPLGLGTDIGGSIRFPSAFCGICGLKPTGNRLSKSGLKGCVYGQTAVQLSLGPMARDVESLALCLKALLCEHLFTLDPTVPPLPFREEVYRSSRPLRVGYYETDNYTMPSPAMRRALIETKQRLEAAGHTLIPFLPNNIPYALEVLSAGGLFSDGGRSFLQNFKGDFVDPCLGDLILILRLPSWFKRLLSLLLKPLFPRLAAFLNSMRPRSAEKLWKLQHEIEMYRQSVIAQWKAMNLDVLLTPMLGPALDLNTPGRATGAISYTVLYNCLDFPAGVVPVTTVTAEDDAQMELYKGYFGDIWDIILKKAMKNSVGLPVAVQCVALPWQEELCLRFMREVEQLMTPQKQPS
The experiment can be described thus: Determination of FAAH inhibitory activity in rat (rat brain membrane preparations, [3H]-anandamide hydrolysis). The experiment is classed as biochemical. The following applies: rat brain membrane preparations; for inhibition at 0.1 µM: 100 nM test substance, read-out: FAAH Inhibition, Inhibition Rate at 100 nM; for IC50: test substance 0.1 nM to 1 μM, read-out: FAAH Inhibition IC50. The procedure, abridged:
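Compounds tested from 0.1 nM to 1 μM to derive IC50 against FAAH hydrolysis in rat brain membrane preparations (100 μg/mL). A 10-min 37 °C preincubation was followed by 10 min with [3H]-anandamide (2 nM) mixed with 2 μM unlabelled anandamide. Radioactive ethanolamine was extracted into the water/methanol layer and counted.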

Take `CCCCc1ncc2c(n1)n(C)c(=O)n2C(=O)N1CCCC1` [Example 274, 2-Butyl-9-methyl-7-(pyrrolidin-1-ylcarbonyl)-7,9-dihydro-8H-purine-8-one]: the inhibition at 0.1 µM is 98% and the half-maximal inhibitory concentration (IC50) turned out to be 0.01 µM.

As to `CC(C)c1ncc2c(n1)n(C)c(=O)n2C(=O)N1CCCC1` [Example 275], the inhibition at 0.1 µM came to 73% and the half-inhibitory concentration (IC50) stood at 0.064 µM.

For the molecule `CCOC(=O)CCc1ncc2c(n1)n(C)c(=O)n2C(=O)N1CCCC1` [Example 276], the inhibition at 0.1 µM was found to be 63% and the half-maximal inhibitory concentration (IC50) came out at 0.075 µM.

As for `CCN(C)C(=O)n1c(=O)n(C)c2nc(Cc3cccc(OC)c3)ncc21` [Example 277, N-Ethyl-2-(3-methoxybenzyl)-N,9-dimethyl-8-oxo-8,9-dihydro-7H-purine-7-carboxamide], the inhibition at 0.1 µM was determined as 96% and the half-maximal inhibitory concentration (IC50) worked out at 0.007 µM.

Take `CCN(C)C(=O)n1c(=O)n(C)c2nc(Cc3ccccc3)ncc21` [Example 278, 2-Benzyl-N-ethyl-N,9-dimethyl-8-oxo-8,9-dihydro-7H-purine-7-carboxamide]: the inhibition at 0.1 µM was found to be 99% and the half-maximal inhibitory concentration (IC50) is 0.008 µM.

Consider `CCN(C)C(=O)n1c(=O)n(C)c2nc(Cc3ccc(F)cc3)ncc21` [Example 279, N-Ethyl-2-(4-fluorobenzyl)-N,9-dimethyl-8-oxo-8,9-dihydro-7H-purine-7-carboxamide], for which the inhibition at 0.1 µM was 98% and the IC50 was found to be 0.003 µM.

Consider `CCN(C)C(=O)n1c(=O)n(C)c2nc(Cc3ccc(OC)cc3)ncc21` [Example 280, N-Ethyl-2-(4-methoxybenzyl)-N,9-dimethyl-8-oxo-8,9-dihydro-7H-purine-7-carboxamide], for which the inhibition at 0.1 µM came out at 105% and the half-inhibitory concentration (IC50) was 0.011 µM.

Regarding `CCN(C)C(=O)n1c(=O)n(C)c2nc(Cc3ccc(C)cc3)ncc21` [Example 281, N-Ethyl-N,9-dimethyl-2-(4-methylbenzyl)-8-oxo-8,9-dihydro-7H-purine-7-carboxamide], the inhibition at 0.1 µM came out at 98% and the IC50 stood at 0.014 µM.

Regarding `CCN(C)C(=O)n1c(=O)n(C)c2nc(Cc3cccc(C)c3)ncc21` [Example 282, N-Ethyl-N,9-dimethyl-2-(3-methylbenzyl)-8-oxo-8,9-dihydro-7H-purine-7-carboxamide], the inhibition at 0.1 µM came to 97% and the IC50 was 0.01 µM.

For `CCN(C)C(=O)n1c(=O)n(C)c2nc(Cc3cccc(F)c3)ncc21` [Example 284, N-Ethyl-2-(3-fluorobenzyl)-N,9-dimethyl-8-oxo-8,9-dihydro-7H-purine-7-carboxamide], the inhibition at 0.1 µM came out at 100% and the half-inhibitory concentration (IC50) is 0.003 µM.

With `Cn1c(=O)n(C(=O)N2CCCC2)c2nc(Cc3cccc(F)c3)ncc21` [Example 286, 2-(3-Fluorobenzyl)-7-methyl-9-(pyrrolidin-1-ylcarbonyl)-7,9-dihydro-8H-purine-8-one], the inhibition at 0.1 µM worked out at 86% and the 50% inhibitory concentration (IC50) came out at 0.059 µM.

As to `COc1ccc(Cc2ncc3c(n2)n(C(=O)N2CCCC2)c(=O)n3C)cc1` [Example 287, 2-(4-Methoxybenzyl)-7-methyl-9-(pyrrolidin-1-ylcarbonyl)-7,9-dihydro-8H-purine-8-one], the inhibition at 0.1 µM turned out to be 96% and the concentration for half-maximal inhibition (IC50) amounted to 0.029 µM.

For the molecule `COc1cccc(Cc2ncc3c(n2)n(C(=O)N2CCCC2)c(=O)n3C)c1` [Example 288, 2-(3-Methoxybenzyl)-7-methyl-9-(pyrrolidin-1-ylcarbonyl)-7,9-dihydro-8H-purine-8-one], the inhibition at 0.1 µM came out at 86% and the IC50 was determined as 0.047 µM.

Take `Cc1ccc(Cc2ncc3c(n2)n(C(=O)N2CCCC2)c(=O)n3C)cc1` [Example 289, 7-Methyl-2-(4-methylbenzyl)-9-(pyrrolidin-1-ylcarbonyl)-7,9-dihydro-8H-purine-8-one]: the inhibition at 0.1 µM was determined as 96% and the 50% inhibitory concentration (IC50) amounted to 0.015 µM.

Turning to `Cn1c(=O)n(C(=O)N2CCCC2)c2nc(CCc3ccccc3)ncc21` [Example 290, 7-Methyl-2-(2-phenylethyl)-9-(pyrrolidin-1-ylcarbonyl)-7,9-dihydro-8H-purine-8-one], the inhibition at 0.1 µM stood at 93% and the half-maximal inhibitory concentration (IC50) worked out at 0.047 µM.

In the case of `Cn1c(=O)n(C(=O)N2CCCC2)c2nc(Cc3ccc(F)c(F)c3)ncc21` [Example 293, 2-(3,4-Difluorobenzyl)-7-methyl-9-(pyrrolidin-1-ylcarbonyl)-7,9-dihydro-8H-purine-8-one], the inhibition at 0.1 µM is 97% and the concentration for half-maximal inhibition (IC50) was 0.024 µM.

For the molecule `Cc1cccc(Cc2ncc3c(n2)n(C(=O)N2CCCC2)c(=O)n3C)c1` [Example 294, 7-Methyl-2-(3-methylbenzyl)-9-(pyrrolidin-1-ylcarbonyl)-7,9-dihydro-8H-purine-8-one], the inhibition at 0.1 µM was found to be 93% and the 50% inhibitory concentration (IC50) was determined as 0.037 µM.

On to `Cn1c(=O)n(C(=O)N2CCCC2)c2nc(Cc3ccc(F)cc3)ncc21` [Example 295, 2-(4-Fluorobenzyl)-7-methyl-9-(pyrrolidin-1-ylcarbonyl)-7,9-dihydro-8H-purine-8-one], for which the inhibition at 0.1 µM turned out to be 91% and the IC50 worked out at 0.043 µM.

Consider `Cn1c(=O)n(C(=O)N2CCCC2)c2nc(Cc3ccc(F)cc3F)ncc21` [Example 296, 2-(2,4-Difluorobenzyl)-7-methyl-9-(pyrrolidin-1-ylcarbonyl)-7,9-dihydro-8H-purine-8-one], for which the inhibition at 0.1 µM was 92% and the IC50 was found to be 0.045 µM.

Regarding `Cn1c(=O)n(C(=O)N2CCCC2)c2nc(Cc3cc(F)ccc3F)ncc21` [Example 297, 2-(2,5-Difluorobenzyl)-7-methyl-9-(pyrrolidin-1-ylcarbonyl)-7,9-dihydro-8H-purine-8-one], the inhibition at 0.1 µM came out at 89% and the IC50 turned out to be 0.047 µM.

`Cn1c(=O)n(C(=O)N2CCCC2)c2nc(Cc3c(F)cccc3F)ncc21` [Example 298, 2-(2,6-Difluorobenzyl)-7-methyl-9-(pyrrolidin-1-ylcarbonyl)-7,9-dihydro-8H-purine-8-one]: the inhibition at 0.1 µM is 98% and the 50% inhibitory concentration (IC50) worked out at 0.048 µM.

As for `Cn1c(=O)n(C(=O)N2CCCC2)c2nc(Cc3cc(F)cc(F)c3)ncc21` [Example 299, 2-(3,5-Difluorobenzyl)-7-methyl-9-(pyrrolidin-1-ylcarbonyl)-7,9-dihydro-8H-purine-8-one], the inhibition at 0.1 µM came out at 100% and the half-maximal inhibitory concentration (IC50) was found to be 0.037 µM.

Regarding `Cn1c(=O)n(C(=O)N2CCCC2)c2nc(Cc3ccccc3F)ncc21` [Example 300, 2-(2-Fluorobenzyl)-7-methyl-9-(pyrrolidin-1-ylcarbonyl)-7,9-dihydro-8H-purine-8-one], the inhibition at 0.1 µM stood at 88% and the IC50 amounted to 0.04 µM.

`O=C(N1CCCC1)n1c(=O)[nH]c2nc(-c3ccccc3)ncc21` [Example 301, 2-phenyl-7-(pyrrolidin-1-ylcarbonyl)-7,9-dihydro-8H-purine-8-one]: the inhibition at 0.1 µM was 90% and the IC50 stood at 0.023 µM.

In the case of `O=C(N1CCCC1)n1c(=O)n(CCO)c2nc(-c3ccccc3)ncc21` [Example 302, 9-(2-hydroxyethyl)-2-phenyl-7-(pyrrolidin-1-ylcarbonyl)-7,9-dihydro-8H-purine-8-one], the inhibition at 0.1 µM was determined as 94% and the IC50 stood at 0.046 µM.

Turning to `CCn1c(=O)n(C(=O)N2CCCC2)c2cnc(-c3ccccc3)nc21` [Example 303], the inhibition at 0.1 µM was found to be 101% and the IC50 was 0.007 µM.

With `CCCn1c(=O)n(C(=O)N2CCCC2)c2cnc(-c3ccccc3)nc21` [Example 304, 2-Phenyl-9-propyl-7-(pyrrolidin-1-ylcarbonyl)-7,9-dihydro-8H-purine-8-one], the inhibition at 0.1 µM was 100% and the IC50 stood at 0.009 µM.

In the case of `CC(C)n1c(=O)n(C(=O)N2CCCC2)c2cnc(-c3ccccc3)nc21` [Example 305], the inhibition at 0.1 µM amounted to 99% and the IC50 was 0.012 µM.

`CCCCn1c(=O)n(C(=O)N2CCCC2)c2cnc(-c3ccccc3)nc21` [Example 306, 9-Butyl-2-phenyl-7-(pyrrolidin-1-ylcarbonyl)-7,9-dihydro-8H-purine-8-one]: the inhibition at 0.1 µM was 99% and the IC50 was found to be 0.015 µM.

In the case of `CC(C)Cn1c(=O)n(C(=O)N2CCCC2)c2cnc(-c3ccccc3)nc21` [Example 307], the inhibition at 0.1 µM came to 96% and the IC50 came to 0.041 µM.

As to `O=C(N1CCCC1)n1c(=O)n(Cc2ccccc2)c2nc(-c3ccccc3)ncc21` [Example 308], the inhibition at 0.1 µM was 66% and the IC50 worked out at 0.074 µM.

As for `O=C(N1CCCC1)n1c(=O)n(CCN2CCCC2)c2nc(-c3ccccc3)ncc21` [Example 310], the inhibition at 0.1 µM came to 5% and the IC50 is over 0.1 µM.

As for `Cn1c(=O)n(C(=O)N2CCCC2)c2cnc(-c3cccc(O)c3)nc21` [Example 311, 2-(3-hydroxyphenyl)-9-methyl-7-(pyrrolidin-1-ylcarbonyl)-7,9-dihydro-8H-purine-8-one], the inhibition at 0.1 µM was 88% and the IC50 came out at 0.053 µM.
